Assay results: article PMC3045627 (Journal of medicinal chemistry, 2010)
Like-named read-outs stand apart in the source and are kept apart here. Values belong to the molecule of their own block, whether it stands above or below them.

What was measured:
[1] = biological target: human farnesyltransferase (hFTase) (Homo sapiens, UniProt P49354+P49356); assay: In vitro hFTase inhibition: incorporation of [3H]FPP into recombinant H-Ras-CVLS; format: biochemical; conditions: for selectivity (ratio of GGTase-I to FTase IC50s): GGTase-I IC50 / hFTase IC50; for fold improvement in hFTase inhibitory activity relative to 1az: relative to parent 1az
[2] = tested on: farnesylation of H-Ras in oncogenic H-Ras-transformed NIH3T3 cells; assay: Whole cell inhibition of farnesylation; format: cell-based; conditions: Mus musculus

Structure (SMILES): Cn1cnc(S(=O)(=O)N(CCN(Cc2cncn2C)c2ccc(C#N)cc2)Cc2ccncc2)c1 [1af]
selectivity (ratio of GGTase-I to FTase IC50s) [1]: >139

Structure (SMILES): Cn1cnc(S(=O)(=O)N(CCN(Cc2cncn2C)c2ccc(C#N)cc2)Cc2ccsc2)c1 [1ai, [N-(Thiophen-3-ylmethyl), N-{2-[(4-Cyanophenyl)-(3-methyl-3H-imidazol-4-ylmethyl)-amino]-ethyl}] 1-Methyl-1H-imidazole-4-sulfonamide]
times as potent against hFTase as isomeric 1ak ([1]; relative to 1ak): more than 34 times

Structure (SMILES): Cc1c(CN(CCN(Cc2cncn2C)c2ccc(C#N)cc2)S(=O)(=O)c2cn(C)cn2)cnn1C [1an, [N-(1,3,5-Trimethyl-1H-pyrazol-4-ylmethyl), N-{2-[(4-Cyanophenyl)-(3-methyl-3H-imidazol-4-ylmethyl)-amino]-ethyl}] 1-Methyl-1H-imidazole-4-sulfonamide]
selectivity (ratio of GGTase-I to FTase IC50s) [1]: >1.9

Structure (SMILES): Cn1cnc(S(=O)(=O)N(CCN(Cc2cncn2C)c2ccc(C#N)cc2)Cc2ccc(-n3cccc3)cc2)c1 [1av]
fold improvement of in vitro hFTase inhibition relative to 1au ([1]; relative to 1au): approximately 4 fold

Structure (SMILES): Cn1cnc(S(=O)(=O)N(CCN(Cc2cncn2C)c2ccc(C#N)cc2)CC2CCCCC2)c1 [1ax]
GGTase-I/FTase selectivity ([1]; selectivity for hFTase over GGTase-I): about 9 fold | IC50 ([2]; NIH3T3, read-out: processing IC50 (μM) H-Ras): 0.1 ± 0.07 µM | IC50 ([2]; NIH3T3, read-out: whole cell H-Ras processing IC50): ~0.09 µM

Structure (SMILES): Cn1cnc(S(=O)(=O)N(CCN(Cc2cncn2C)c2ccc(C#N)cc2)CC2CCN(C(=O)OC(C)(C)C)CC2)c1 [1ay]
fold drop in hFTase inhibition relative to 1ax ([1]; relative to 1ax): > 60 fold

Structure (SMILES): Cn1cnc(S(=O)(=O)N(CCN(Cc2cncn2C)c2ccc(C#N)cc2)CC2CCN(c3ncccn3)CC2)c1 [1az]
fold recovery of hFTase activity relative to 1ay ([1]; relative to 1ay): more than 7 fold

Second part, the molecule after the results:

selectivity (ratio of GGTase-I to FTase IC50s) [1]: >18
Structure (SMILES): Cn1cnc(S(=O)(=O)N(CCN(Cc2cncn2C)c2ccc(C#N)cc2Cl)CC2CCN(c3ncccn3)CC2)c1 [19a, [N-{2-[(2-Chloro-4-cyanophenyl)-(3-methyl-3H-imidazol-4-ylmethyl)-amino]-ethyl}, N-{N-(2-Pyrimidinyl)-piperidin-4-ylmethyl}] 1-Methyl-1H-imidazole-4-sulfonamide]

selectivity (ratio of GGTase-I to FTase IC50s) [1]: >19
Structure (SMILES): Cn1cnc(S(=O)(=O)N(CCN(Cc2cncn2C)c2ccc(C#N)nc2)CC2CCN(c3ncccn3)CC2)c1 [19b, N-(2-((2-Cyanopyridin-5-yl)((1-methyl-1H-imidazol-5-yl)methyl)-amino)ethyl)-1-methyl-N-((1-(pyrimidin-2-yl)piperidin-4-yl)methyl)-1H-imidazole-4-sulfonamide]

fold improvement in hFTase inhibitory activity relative to 1az [1]: 2 fold
Structure (SMILES): Cn1cnc(S(=O)(=O)N(CCN(Cc2cncn2C)c2ccc(C#N)c(F)c2)CC2CCN(c3ncccn3)CC2)c1 [19e, [N-{2-[(3-Fluoro-4-cyanophenyl)-(3-methyl-3H-imidazol-4-ylmethyl)-amino]-ethyl}, N-{N-(2-Pyrimidinyl)-piperidin-4-ylmethyl}] 1-Methyl-1H-imidazole-4-sulfonamide]

fold improvement in hFTase inhibitory activity relative to 1az [1]: approximately 8 fold
Structure (SMILES): Cn1cnc(S(=O)(=O)N(CCN(Cc2cncn2C)c2ccc(C#N)cc2F)CC2CCN(c3ncccn3)CC2)c1 [19f, [N-{2-[(2-Fluoro-4-cyanophenyl)-(3-methyl-3H-imidazol-4-ylmethyl)-amino]-ethyl}, N-{N-(2-Pyrimidinyl)-piperidin-4-ylmethyl}] 1-Methyl-1H-imidazole-4-sulfonamide]

fold drop in hFTase inhibitory activity relative to 1a ([1]; relative to 1a): > 7 fold
Structure (SMILES): Cn1cnc(S(=O)(=O)N(CCCN(Cc2cncn2C)c2ccc(C#N)cc2)Cc2ccccc2)c1 [20a]
